Measurements: patent US5597919A, “Pyrimidinyl or Pyridinyl alkenyl amine compounds” (priority 1995, dated 1997)

Assays:
[1] = tested on: dopamine release from synaptosomes of the striatal area of rat brain; type: biochemical, rat (Sprague-Dawley); conditions: for Dopamine Release Emax (% nicotine): rat, striatal synaptosomes
[2] = tested on: ganglionic-type neuronal nicotinic receptors (rat pheochromocytoma clonal line PC 12); assay: Interaction with ganglia: 86Rb+ efflux in PC12 cells; type: cell-based

## CNCC/C=C\c1cccnc1 [Sample No. 5, (Z)-metanicotine]
[1]
  EC50: 11.3 µM
  Dopamine Release Emax (% nicotine): 88 % nicotine

## CN1CCC[C@H]1c1cccnc1 [Sample No. C-1, (S)-(-)-nicotine, reference compound]
[1]
  EC50: 0.115 µM

## COc1cncc(/C=C/CCN)c1 [Sample No. 3, (E)-4-[3-(5-methoxypyridin)yl]-3-butene-1-amine monofumarate]
[2]
  Ganglion Effect (% nicotine): 0 % nicotine
[1]
  EC50: 4 µM
  Dopamine Release Emax (% nicotine): 95 % nicotine

## CNCC/C=C/c1cncnc1 [Sample No. 2, (E)-N-methyl-4-(5-pyrimidinyl)-3-butene-1-amine]
[2]
  Ganglion Effect (% nicotine): 1 % nicotine
[1]
  EC50: 5.8 µM
  Dopamine Release Emax (% nicotine): 77 % nicotine

## NCC/C=C/c1cncnc1.O=C(O)/C=C/C(=O)O [Sample No. 1, (E)-4-(5-pyrimidinyl)-3-butene-1-amine monofumarate]
[1]
  EC50: 4.36 µM
  Dopamine Release Emax (% nicotine): 113 % nicotine

## CNCC/C=C/c1ccc(C)nc1 [Sample No. 6, (E)-N-methyl-4-[3-(6-methylpyrindin)yl]-3-butene-1-amine]
[2]
  Ganglion Effect (% nicotine): 4 % nicotine
[1]
  EC50: 0.219 µM
  Dopamine Release Emax (% nicotine): 60 % nicotine

## CNCCCCc1cccnc1 [Sample No. 7, N-methyl-(3-1-pyridinyl)-butane-1-amine]
[2]
  Ganglion Effect (% nicotine): 31 % nicotine
[1]
  Dopamine Release Emax (% nicotine): 72 % nicotine

## CNCC/C=C/c1cccnc1 [Sample No. 8, (E)-metanicotine]
[1]
  EC50: 1.47 µM
  Dopamine Release Emax (% nicotine): 80 % nicotine

## CNCCC#Cc1cccnc1 [Sample No. 4, N-Methyl-4-(3-pyridinyl)-3-butyne-1-amine]
[2]
  Ganglion Effect (% nicotine): 59 % nicotine
[1]
  EC50: 8.35 µM
  Dopamine Release Emax (% nicotine): 87 % nicotine
